Laboratory results from the NIST ThermoML archive (doi:10.1016/j.fluid.2017.10.027).
Numbers after ± are expanded uncertainties.

Settings: Liquid; for mass density: Vibrating tube method; for speed of sound: Sing-around technique in a fixed-path interferometer

CCCCOCCO [2-butoxyethan-1-ol]
Settings | mass density, 100 kPa [kg/m3] | mass density, 101.33 kPa [kg/m3] | mass density, 2500 kPa [kg/m3] | mass density, 5000 kPa [kg/m3] | mass density, 10000 kPa [kg/m3] | mass density, 15000 kPa [kg/m3] | mass density, 20000 kPa [kg/m3] | mass density, 25000 kPa [kg/m3] | mass density, 30000 kPa [kg/m3] | speed of sound, 101.33 kPa [m/s]
293.15 K | 900 ± 2 | – | 902 ± 2 | 903 ± 2 | 907 ± 2 | 910 ± 2 | 913 ± 2 | 916 ± 2 | 919 ± 2 | –
298.15 K | – | 896.17 ± 0.23 | – | – | – | – | – | – | – | 1304.7 ± 3.2
303.15 K | 892 ± 2 | – | 893 ± 2 | 895 ± 2 | 899 ± 2 | 902 ± 2 | 905 ± 2 | 909 ± 2 | 912 ± 2 | –
313.15 K | 883 ± 2 | – | 885 ± 2 | 887 ± 2 | 889 ± 2 | 894 ± 2 | 898 ± 2 | 901 ± 2 | 904 ± 2 | –
323.15 K | 873 ± 2 | – | 875 ± 2 | 877 ± 2 | 879 ± 2 | 886 ± 2 | 890 ± 2 | 893 ± 2 | 896 ± 2 | –
333.15 K | 866 ± 2 | – | 868 ± 2 | 870 ± 2 | 874 ± 2 | 878 ± 2 | 882 ± 2 | 885 ± 2 | 889 ± 2 | –
343.15 K | 857 ± 2 | – | 860 ± 2 | 862 ± 2 | 866 ± 2 | 870 ± 2 | 874 ± 2 | 877 ± 2 | 881 ± 2 | –
353.15 K | 849 ± 2 | – | 851 ± 2 | 853 ± 2 | 857 ± 2 | 862 ± 2 | 866 ± 2 | 869 ± 2 | 873 ± 2 | –
363.15 K | 839 ± 2 | – | 842 ± 2 | 844 ± 2 | 849 ± 2 | 853 ± 2 | 857 ± 2 | 861 ± 2 | 865 ± 2 | –
373.15 K | 830 ± 2 | – | 833 ± 2 | 835 ± 2 | 840 ± 2 | 845 ± 2 | 849 ± 2 | 853 ± 2 | 857 ± 2 | –
383.15 K | 821 ± 2 | – | 823 ± 2 | 826 ± 2 | 831 ± 2 | 836 ± 2 | 841 ± 2 | 845 ± 2 | 849 ± 2 | –
393.15 K | 811 ± 2 | – | 814 ± 2 | 817 ± 2 | 822 ± 2 | 827 ± 2 | 832 ± 2 | 837 ± 2 | 841 ± 2 | –
403.15 K | 801 ± 2 | – | 804 ± 2 | 807 ± 2 | 813 ± 2 | 819 ± 2 | 824 ± 2 | 829 ± 2 | 833 ± 2 | –
413.15 K | 790 ± 2 | – | 794 ± 2 | 797 ± 2 | 804 ± 2 | 810 ± 2 | 815 ± 2 | 821 ± 2 | 825 ± 2 | –

CCOCCO [2-ethoxyethan-1-ol]
Settings | mass density, 100 kPa [kg/m3] | mass density, 101.33 kPa [kg/m3] | mass density, 2500 kPa [kg/m3] | mass density, 5000 kPa [kg/m3] | mass density, 10000 kPa [kg/m3] | mass density, 15000 kPa [kg/m3] | mass density, 20000 kPa [kg/m3] | mass density, 25000 kPa [kg/m3] | mass density, 30000 kPa [kg/m3] | speed of sound, 101.33 kPa [m/s]
293.15 K | 931 ± 2 | – | 933 ± 2 | 934 ± 2 | 938 ± 2 | 941 ± 2 | 944 ± 2 | 947 ± 2 | 950 ± 2 | –
298.15 K | – | 925.64 ± 0.23 | – | – | – | – | – | – | – | 1305.7 ± 3.2
303.15 K | 922 ± 2 | – | 924 ± 2 | 925 ± 2 | 929 ± 2 | 932 ± 2 | 936 ± 2 | 939 ± 2 | 942 ± 2 | –
313.15 K | 913 ± 2 | – | 914 ± 2 | 916 ± 2 | 920 ± 2 | 924 ± 2 | 927 ± 2 | 930 ± 2 | 933 ± 2 | –
323.15 K | 903 ± 2 | – | 905 ± 2 | 907 ± 2 | 911 ± 2 | 915 ± 2 | 918 ± 2 | 922 ± 2 | 925 ± 2 | –
333.15 K | 894 ± 2 | – | 896 ± 2 | 898 ± 2 | 902 ± 2 | 906 ± 2 | 910 ± 2 | 913 ± 2 | 917 ± 2 | –
343.15 K | 884 ± 2 | – | 886 ± 2 | 889 ± 2 | 893 ± 2 | 897 ± 2 | 901 ± 2 | 905 ± 2 | 908 ± 2 | –
353.15 K | 874 ± 2 | – | 877 ± 2 | 879 ± 2 | 884 ± 2 | 888 ± 2 | 892 ± 2 | 896 ± 2 | 900 ± 2 | –
363.15 K | 864 ± 2 | – | 867 ± 2 | 869 ± 2 | 874 ± 2 | 879 ± 2 | 883 ± 2 | 887 ± 2 | 891 ± 2 | –
373.15 K | 854 ± 2 | – | 857 ± 2 | 859 ± 2 | 865 ± 2 | 869 ± 2 | 874 ± 2 | 878 ± 2 | 882 ± 2 | –
383.15 K | 843 ± 2 | – | 846 ± 2 | 849 ± 2 | 855 ± 2 | 860 ± 2 | 865 ± 2 | 869 ± 2 | 874 ± 2 | –
393.15 K | 832 ± 2 | – | 836 ± 2 | 839 ± 2 | 845 ± 2 | 850 ± 2 | 855 ± 2 | 860 ± 2 | 865 ± 2 | –

CCCOCCO [2-propoxyethanol]
Settings | mass density, 100 kPa [kg/m3] | mass density, 101.33 kPa [kg/m3] | mass density, 2500 kPa [kg/m3] | mass density, 5000 kPa [kg/m3] | mass density, 10000 kPa [kg/m3] | mass density, 15000 kPa [kg/m3] | mass density, 20000 kPa [kg/m3] | mass density, 25000 kPa [kg/m3] | mass density, 30000 kPa [kg/m3] | speed of sound, 101.33 kPa [m/s]
293.15 K | 911 ± 2 | – | 913 ± 2 | 915 ± 2 | 918 ± 2 | 922 ± 2 | 925 ± 2 | 928 ± 2 | 931 ± 2 | –
298.15 K | – | 907.23 ± 0.15 | – | – | – | – | – | – | – | 1298.8 ± 3.1
303.15 K | 903 ± 2 | – | 904 ± 2 | 906 ± 2 | 910 ± 2 | 913 ± 2 | 917 ± 2 | 920 ± 2 | 923 ± 2 | –
313.15 K | 894 ± 2 | – | 896 ± 2 | 898 ± 2 | 901 ± 2 | 905 ± 2 | 908 ± 2 | 912 ± 2 | 915 ± 2 | –
323.15 K | 885 ± 2 | – | 887 ± 2 | 889 ± 2 | 893 ± 2 | 897 ± 2 | 900 ± 2 | 904 ± 2 | 907 ± 2 | –
333.15 K | 876 ± 2 | – | 878 ± 2 | 880 ± 2 | 884 ± 2 | 888 ± 2 | 892 ± 2 | 895 ± 2 | 899 ± 2 | –
343.15 K | 867 ± 2 | – | 869 ± 2 | 871 ± 2 | 875 ± 2 | 879 ± 2 | 883 ± 2 | 887 ± 2 | 891 ± 2 | –
353.15 K | 857 ± 2 | – | 860 ± 2 | 862 ± 2 | 866 ± 2 | 871 ± 2 | 875 ± 2 | 879 ± 2 | 882 ± 2 | –
363.15 K | 848 ± 2 | – | 850 ± 2 | 853 ± 2 | 857 ± 2 | 862 ± 2 | 866 ± 2 | 870 ± 2 | 874 ± 2 | –
373.15 K | 838 ± 2 | – | 840 ± 2 | 843 ± 2 | 848 ± 2 | 853 ± 2 | 858 ± 2 | 862 ± 2 | 866 ± 2 | –
383.15 K | 828 ± 2 | – | 830 ± 2 | 833 ± 2 | 839 ± 2 | 844 ± 2 | 849 ± 2 | 853 ± 2 | 858 ± 2 | –
393.15 K | 817 ± 2 | – | 820 ± 2 | 823 ± 2 | 829 ± 2 | 835 ± 2 | 840 ± 2 | 845 ± 2 | 849 ± 2 | –
403.15 K | 806 ± 2 | – | 810 ± 2 | 813 ± 2 | 819 ± 2 | 825 ± 2 | 831 ± 2 | 836 ± 2 | 841 ± 2 | –
413.15 K | 795 ± 2 | – | 799 ± 2 | 803 ± 2 | 810 ± 2 | 816 ± 2 | 822 ± 2 | 827 ± 2 | 832 ± 2 | –
